SMILES strings stand for the structures.

Assay [1] deals with T1, human D2R/β-arrestin (Homo sapiens (Human), UniProt P14416). The assay is described as follows: cell-based. The conditions noted are these: cAMP Antagonist, CHO-K1 cells expressing human D2R/β-arrestin; antagonist mode, 2.5 μM forskolin and 2.7 nM quinpirole.
Assay [2] addresses T1, human D2R/β-arrestin. The assay is described as follows: Gi/cAMP agonist assay (Lance Ultra cAMP, forskolin). Type of assay: cell-based. To be noted: CHO-K1 cells expressing human D2R/β-arrestin; agonist mode, 2.5 μM forskolin. How it is done:
Eu-cAMP tracer solution (10 μl, PerkinElmer, 360 μl of Tracer in 17.64 ml kit buffer) and ULight-anti-cAMP solution (10 μl, 120 μL antibody in 17.88 ml kit buffer) was then added to each well.

Assay [3] concerns the target T1, human D2R/β-arrestin. The assay is described as follows: cell-based. The conditions noted are these: β-arrestin Antagonist, CHO-K1 cells expressing human D2R/β-arrestin; antagonist mode, quinpirole 130 nM.
Assay [4] concerns the target T1, human D2R/β-arrestin. Kind of assay: β-arrestin agonist assay (PathHunter). The assay is classed as cell-based. To be noted: CHO-K1 cells expressing human D2R/β-arrestin; agonist mode. How it is done: The detection reagent (9.6 μL, Buffer:Emerald II:Galactor-Star in a 19:5:1 ratio, i.e., 14.06 mL:3.7 mL:0.74 mL=18.5 mL) was then added to the agonist plates.

T1 sequence (P14416 whole entry): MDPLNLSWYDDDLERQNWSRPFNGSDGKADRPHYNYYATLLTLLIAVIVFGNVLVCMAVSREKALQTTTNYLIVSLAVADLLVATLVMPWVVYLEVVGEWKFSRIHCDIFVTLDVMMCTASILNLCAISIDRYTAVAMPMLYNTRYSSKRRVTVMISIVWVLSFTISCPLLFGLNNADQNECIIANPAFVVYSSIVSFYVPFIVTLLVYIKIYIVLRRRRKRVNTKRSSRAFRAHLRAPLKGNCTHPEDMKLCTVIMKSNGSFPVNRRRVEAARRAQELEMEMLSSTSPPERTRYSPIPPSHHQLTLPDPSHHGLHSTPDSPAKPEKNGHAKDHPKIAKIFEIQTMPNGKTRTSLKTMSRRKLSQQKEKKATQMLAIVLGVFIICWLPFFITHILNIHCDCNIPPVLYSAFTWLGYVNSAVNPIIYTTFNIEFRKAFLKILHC

Usually IC50 stands for the point on the concentration scale where inhibition reaches its midpoint. Read a low IC50 as greater potency. A word on the EC50: it is the midpoint of the concentration-response curve. A lower EC50 goes with an effect from little substance. Take `CC1(Oc2ccc(Cl)cc2)CCN(CC2COc3ccccc3O2)CC1` (stereo not shown) [Compound 142, 4-(4-chlorophenoxy)-1-((2,3-dihydrobenzo[b][1,4]dioxin-2-yl)methyl)-4-methylpiperidine]: the half-maximal inhibitory concentration (IC50) against human D2R/β-arrestin [1] and against human D2R/β-arrestin [3] was more than 30 µM in each case. The EC50 on human D2R/β-arrestin [2] was less than 0.1 µM; on human D2R/β-arrestin [4], 0.1 to 1 µM.
Take `CC1(Oc2ccc(Cl)cc2)CCN(CCOC2CCCCC2)CC1` [Compound 143, 4-(4-chlorophenoxy)-1-(2-(cyclohexyloxy)ethyl)-4-methylpiperidine]: the IC50 against human D2R/β-arrestin [1] was more than 30 µM; at human D2R/β-arrestin [3], 10 to 30 µM. Also, the EC50 on human D2R/β-arrestin [2] was 10 to 30 µM; at human D2R/β-arrestin [4], more than 30 µM.
As for `Clc1ccc2c(c1)C[C@@H]1CN(CCOc3ccccc3)C[C@H]1O2` [Compound 145, (3aS,9aR)-7-chloro-2-(2-phenoxyethyl)-1,2,3,3a,9,9a-hexahydrochromeno[2,3-c]pyrrole], the concentration for half-maximal inhibition (IC50) on human D2R/β-arrestin [1] fell in the range of 0.1 to 1 µM; at human D2R/β-arrestin [3], 10 to 30 µM. The EC50 at human D2R/β-arrestin [2] and on human D2R/β-arrestin [4] was more than 30 µM each time.
As for `CC1(Oc2ccc(Cl)cc2)CCN(CCOc2ccccc2OC(F)(F)F)CC1` [Compound 146, 4-(4-chlorophenoxy)-4-methyl-1-(2-(2-(trifluoromethoxy)phenoxy)ethyl) piperidine], the values for the concentration for half-maximal inhibition (IC50) against human D2R/β-arrestin [1] and against human D2R/β-arrestin [3] were more than 30 µM and 0.1 to 1 µM, respectively. The half-maximal effective concentration (EC50) at human D2R/β-arrestin [2] and on human D2R/β-arrestin [4] was 0.1 to 1 µM throughout.
As for `CC1(Oc2ccc(Cl)cc2)CCN(CCOc2ccc(C(F)(F)F)nc2)CC1` [Compound 147, 5-(2-(4-(4-chlorophenoxy)-4-methylpiperidin-1-yl)ethoxy)-2-(trifluoromethyl)pyridine], the IC50 against human D2R/β-arrestin [1] and against human D2R/β-arrestin [3] was more than 30 µM throughout. The EC50 on human D2R/β-arrestin [2] and at human D2R/β-arrestin [4] was less than 0.1 µM throughout.
`CC1(Oc2ccc(Cl)cc2)CCN(CCOc2ccc(C(F)(F)F)cn2)CC1` [Compound 148, 2-(2-(4-(4-chlorophenoxy)-4-methylpiperidin-1-yl)ethoxy)-5-(trifluoromethyl) pyridine]: the IC50 against human D2R/β-arrestin [1] and at human D2R/β-arrestin [3] was more than 30 µM in each case. Besides, the half-maximal effective concentration (EC50) is 10 to 30 µM at human D2R/β-arrestin [2] and more than 30 µM on human D2R/β-arrestin [4].
As to `CC1(Oc2ccc(Cl)cc2)CCN(CCOc2ccc(F)cc2)CC1` [Compound 149, 4-(4-chlorophenoxy)-1-(2-(4-fluorophenoxy)ethyl)-4-methylpiperidine], the IC50 was more than 30 µM at human D2R/β-arrestin [1] and 1 to 10 µM against human D2R/β-arrestin [3]. Further, the concentration for a half-maximal effect (EC50) on human D2R/β-arrestin [2] is less than 0.1 µM; on human D2R/β-arrestin [4] it was 0.1 to 1 µM.
Turning to `Cc1ccc(OCCN2CCC(C)(Oc3ccc(Cl)cc3)CC2)cc1` [Compound 150, 4-(4-chlorophenoxy)-4-methyl-1-(2-(p-tolyloxy)ethyl)piperidine], the IC50 against human D2R/β-arrestin [1] and against human D2R/β-arrestin [3] was more than 30 µM in each case. Also, the values for the 50% effective concentration (EC50) at human D2R/β-arrestin [2] and on human D2R/β-arrestin [4] were less than 0.1 µM and 0.1 to 1 µM, respectively.
Turning to `CC1(Oc2ccc(Cl)cc2)CCN(CCOc2ccc(Cl)cc2)CC1` [Compound 151, 4-(4-chlorophenoxy)-1-(2-(4-chlorophenoxy)ethyl)-4-methylpiperidine], the IC50 at human D2R/β-arrestin [1] and on human D2R/β-arrestin [3] was more than 30 µM throughout. In addition, the results for the EC50 on human D2R/β-arrestin [2] and at human D2R/β-arrestin [4] were less than 0.1 µM and 0.1 to 1 µM, respectively.
For the compound `CC1(Oc2ccc(Cl)cc2)CCN(CCOc2ccc(S(C)(=O)=O)cc2)CC1` [Compound 152, 4-(4-chlorophenoxy)-4-methyl-1-(2-(4-(methylsulfonyl)phenoxy)ethyl)piperidine], the IC50 on human D2R/β-arrestin [1] and at human D2R/β-arrestin [3] was 10 to 30 µM throughout. For the same compound, the half-maximal effective concentration (EC50) at human D2R/β-arrestin [2] was 10 to 30 µM; at human D2R/β-arrestin [4], more than 30 µM.
For the compound `CC(=O)c1ccc(OCCN2CCC(C)(Oc3ccc(Cl)cc3)CC2)cc1` [Compound 153, 1-(4-(2-(4-(4-chlorophenoxy)-4-methylpiperidin-1-yl)ethoxy)phenyl)ethanone], the concentration for half-maximal inhibition (IC50) against human D2R/β-arrestin [1] and on human D2R/β-arrestin [3] was 1 to 10 µM in each case. Further, the half-maximal effective concentration (EC50) at human D2R/β-arrestin [2] and on human D2R/β-arrestin [4] was more than 30 µM throughout.
Take `CC(O)c1ccc(OCCN2CCC(C)(Oc3ccc(Cl)cc3)CC2)cc1` (stereo not shown) [Compound 154, 1-(4-(2-(4-(4-chlorophenoxy)-4-methylpiperidin-1-yl)ethoxy)phenyl)ethanol]: the half-maximal inhibitory concentration (IC50) was 0.1 to 1 µM at human D2R/β-arrestin [1] and 10 to 30 µM against human D2R/β-arrestin [3]. In addition, the EC50 at human D2R/β-arrestin [2] and at human D2R/β-arrestin [4] was more than 30 µM in each case.
In the case of `CC1(Oc2ccc(Cl)cc2)CCN(CCOc2ccc(C(C)(C)O)cc2)CC1` [Compound 155, 2-(4-(2-(4-(4-chlorophenoxy)-4-methylpiperidin-1-yl)ethoxy)phenyl)propan-2-ol], the IC50 at human D2R/β-arrestin [1] and at human D2R/β-arrestin [3] was 1 to 10 µM each time. Further, the EC50 on human D2R/β-arrestin [2] and at human D2R/β-arrestin [4] was more than 30 µM each time.
With `CC1(Oc2ccc(Cl)cc2)CCN(CCOc2cccc(F)c2C(F)(F)F)CC1` [Compound 156, 4-(4-chlorophenoxy)-1-(2-(3-fluoro-2-(trifluoromethyl)phenoxy)ethyl)-4-methylpiperidine], the IC50 at human D2R/β-arrestin [1] and at human D2R/β-arrestin [3] was more than 30 µM throughout. The results for the concentration giving a half-maximal response (EC50) on human D2R/β-arrestin [2] and at human D2R/β-arrestin [4] were less than 0.1 µM and 0.1 to 1 µM, respectively.
For `CC1(Oc2ccc(Cl)cc2)CCN(CCOc2ccc(F)cc2S(C)(=O)=O)CC1` [Compound 158, 4-(4-chlorophenoxy)-1-(2-(4-fluoro-2-(methylsulfonyl)phenoxy)ethyl)-4-methylpiperidine], the 50% inhibitory concentration (IC50) lay within 0.1 to 1 µM against human D2R/β-arrestin [1] and 1 to 10 µM at human D2R/β-arrestin [3]. Also, the EC50 was 0.1 to 1 µM on human D2R/β-arrestin [2] and more than 30 µM at human D2R/β-arrestin [4].
Take `COc1ccc(F)cc1OCCN1CCC(C)(Oc2ccc(Cl)cc2)CC1` [Compound 159, 4-(4-chlorophenoxy)-1-(2-(5-fluoro-2-methoxyphenoxy)ethyl)-4-methylpiperidine]: the values for the 50% inhibitory concentration (IC50) on human D2R/β-arrestin [1] and against human D2R/β-arrestin [3] were 1 to 10 µM and 0.1 to 1 µM, respectively. Also, the EC50 on human D2R/β-arrestin [2] was less than 0.1 µM; at human D2R/β-arrestin [4] it was more than 30 µM.
Regarding `COc1cc(F)ccc1OCCN1CCC(C)(Oc2ccc(Cl)cc2)CC1` [Compound 160, 4-(4-chlorophenoxy)-1-(2-(4-fluoro-2-methoxyphenoxy)ethyl)-4-methyl piperidine], the IC50 on human D2R/β-arrestin [1] lay within 0.1 to 1 µM; against human D2R/β-arrestin [3], 1 to 10 µM. In addition, the half-maximal effective concentration (EC50) at human D2R/β-arrestin [2] and at human D2R/β-arrestin [4] was more than 30 µM each time.
For the compound `CC1(Oc2ccc(Cl)cc2)CCN(CCOc2cncs2)CC1` [Compound 161, 5-(2-(4-(4-chlorophenoxy)-4-methylpiperidin-1-yl)ethoxy)thiazole], the IC50 is more than 30 µM on human D2R/β-arrestin [1] and 10 to 30 µM at human D2R/β-arrestin [3]. The half-maximal effective concentration (EC50) at human D2R/β-arrestin [2] is less than 0.1 µM; on human D2R/β-arrestin [4] it was 0.1 to 1 µM.
On to `CC1(Oc2ccc(Cl)cc2)CCN(CCOc2ncccc2C(F)(F)F)CC1` [Compound 162, 2-(2-(4-(4-chlorophenoxy)-4-methylpiperidin-1-yl)ethoxy)-3-(trifluoromethyl)pyridine], for which the half-inhibitory concentration (IC50) against human D2R/β-arrestin [1] was less than 0.1 µM; against human D2R/β-arrestin [3], 0.1 to 1 µM. The 50% effective concentration (EC50) at human D2R/β-arrestin [2] is 1 to 10 µM; at human D2R/β-arrestin [4], more than 30 µM.
As for `CC1(Oc2ccc(Cl)cc2)CCN(CCOc2cccnc2C(F)(F)F)CC1` [Compound 163, 3-(2-(4-(4-chlorophenoxy)-4-methylpiperidin-1-yl)ethoxy)-2-(trifluoromethyl)pyridine], the concentration for half-maximal inhibition (IC50) at human D2R/β-arrestin [1] and at human D2R/β-arrestin [3] was more than 30 µM throughout. Also, the half-maximal effective concentration (EC50) is less than 0.1 µM at human D2R/β-arrestin [2] and 1 to 10 µM at human D2R/β-arrestin [4].
In the case of `CC1(Oc2ccc(Cl)cc2)CCN(CCOc2cc(Cl)ccc2C(F)(F)F)CC1` [Compound 165, 1-(2-(5-chloro-2-(trifluoromethyl)phenoxy)ethyl)-4-(4-chlorophenoxy)-4-methylpiperidine], the IC50 is more than 30 µM on human D2R/β-arrestin [1] and 1 to 10 µM on human D2R/β-arrestin [3]. Further, the half-maximal effective concentration (EC50) at human D2R/β-arrestin [2] lay within 1 to 10 µM; at human D2R/β-arrestin [4], 10 to 30 µM.
Take `CC1(Oc2ccc(Cl)cc2)CCN(CCOc2ccc3c(c2)NC(=O)CC3)CC1` [Compound 166, 7-(2-(4-(4-chlorophenoxy)-4-methylpiperidin-1-yl)ethoxy)-3,4-dihydroquinolin-2(1H)-one]: the 50% inhibitory concentration (IC50) against human D2R/β-arrestin [1] and at human D2R/β-arrestin [3] was 1 to 10 µM throughout. For the same compound, the figures for the EC50 at human D2R/β-arrestin [2] and at human D2R/β-arrestin [4] were 1 to 10 µM and more than 30 µM, respectively.
For `CC1(Oc2ccc(Cl)cc2)CCN(CCOc2ccncc2C(F)(F)F)CC1` [Compound 167, 4-(2-(4-(4-chlorophenoxy)-4-methylpiperidin-1-yl)ethoxy)-3-(trifluoromethyl)pyridine], the IC50 at human D2R/β-arrestin [1] and against human D2R/β-arrestin [3] was 1 to 10 µM throughout. The concentration for a half-maximal effect (EC50) is 1 to 10 µM at human D2R/β-arrestin [2] and more than 30 µM at human D2R/β-arrestin [4].
With `CC1(Oc2ccc(Cl)cc2)CCN(CCNc2ccccc2C(F)(F)F)CC1` [Compound 168, N-(2-(4-(4-chlorophenoxy)-4-methylpiperidin-1-yl)ethyl)-2-(trifluoromethyl) aniline], the half-maximal inhibitory concentration (IC50) on human D2R/β-arrestin [1] and against human D2R/β-arrestin [3] was 1 to 10 µM each time. The half-maximal effective concentration (EC50) at human D2R/β-arrestin [2] and on human D2R/β-arrestin [4] was more than 30 µM in each case.
Turning to `CN(CCN1CCC(C)(Oc2ccc(Cl)cc2)CC1)c1ccccc1C(F)(F)F` [Compound 169, N-(2-(4-(4-chlorophenoxy)-4-methylpiperidin-1-yl)ethyl)-N-methyl-2-(trifluoromethyl)aniline], the IC50 at human D2R/β-arrestin [1] is 0.1 to 1 µM; at human D2R/β-arrestin [3], 1 to 10 µM. The EC50 on human D2R/β-arrestin [2] and on human D2R/β-arrestin [4] was more than 30 µM each time.

The values above are taken from US11498896B2 (The Broad Institute, Inc., priority 2014, dated 2022).
